# Laboratory results published in patent US20030139374A1 (University of Texas, published 2003).
# How the values were obtained:
# [1] = test system: L540rec human Hodgkin's lymphoma tumors; experiment: Tumor tissue necrosis in L540rec tumor-bearing SCID mice treated with tTF and/or endotoxin; type: in vivo
# Description: For in vivo studies, a metastasizing mouse model for human Hodgkin's lymphoma was used. 1×10^7 L540rec cells were injected subcutaneously into the right flank of SCID mice resulting in a subcutaneous tumor with lymph node metastases in the regional lymph node stations. Subcutanous tumors were measured with a caliper in three perpendicular directions a, b, and c, and volumes calculated according to the formula V=π/6×a×b×c.
# (§1) Treatment was initiated when subcutaneous tumors reached a size of 150 to 300 μl. Reagents were administered into the lateral tail vein.
# (§2) Mice were closely observed after treatment for clinical signs of toxicity and clinical status was documented at defined time points (5 minutes. 10 minutes, 15 minutes, 30 minutes. 1 hour, 2 hours, 24 hours, 48 hours, 72 hours). Blood samples were taken from the tail vein at 1 hour, 2 hours and 24 hours to measure TNFα blood levels. Three days after treatment, the mice were anesthetized, blood samples were taken from the vena cava for coagulation tests, and an autopsy was performed to document any changes in gross pathology. Tumors, lymph node metastases and the major normal organs (heart, lung, brain, liver, kidney, colon, spleen, pancreas) were harvested and prepared for histological analysis.
# (§3) Tissue samples harvested at the time of autopsy were fixed in 3% NBF (normal buffered formalin) and embedded in paraffin wax. Tissue blocs were cut, dewaxed and stained with hematoxilin and eosin (H&E). Tissue sections were analyzed on a light microscope by two independent investigators and histological findings were documented. Tumor sections with necrotic areas were scanned with a GS-700 imaging densitometer (Biorad, Hercules, Calif.) and areas of necrosis were calculated as % of total section area. Statistical Analysis was performed using SPSS software (SPSS Science Software, Erkrath, Germany) applying the Mann-Whitney-U-test for ungrouped data.
# [2] = Clinical signs of toxicity and histology of normal organs after tTF and/or endotoxin; type: in vivo, SCID mice; conditions: for Symptoms: no endotoxin, tTF i.v.
# Description: as §1, §2, §3
# [3] = Plasma coagulation parameters (TAT, ATIII) three days after treatment; type: in vivo, SCID mice; conditions: tTF alone, no endotoxin, three days after i.v. treatment
# bEnd 3 cells = experiment: Cell bound coagulation assay on stimulated bEnd 3 endothelial cells (factor Xa generation); type: cell-based, murine; conditions: for Factor Xa generation due to Factor VIIa production: factor VII-only values subtracted
# [4] = target: T1, Factor Xa generation (Factor VIIa, Factor X) (Homo sapiens, UniProt P08709); experiment: Cell free two-stage coagulation assay; type: biochemical; conditions: FIG. 2
# T1 construct: purchased Sigma
# T1 sequence (P08709 61-212 limits assumed): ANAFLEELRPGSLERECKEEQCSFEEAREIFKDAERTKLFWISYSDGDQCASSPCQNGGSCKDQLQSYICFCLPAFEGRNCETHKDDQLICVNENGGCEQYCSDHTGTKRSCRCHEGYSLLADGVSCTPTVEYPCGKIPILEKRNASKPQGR
# T1 sequence (P08709 213-466 limits assumed): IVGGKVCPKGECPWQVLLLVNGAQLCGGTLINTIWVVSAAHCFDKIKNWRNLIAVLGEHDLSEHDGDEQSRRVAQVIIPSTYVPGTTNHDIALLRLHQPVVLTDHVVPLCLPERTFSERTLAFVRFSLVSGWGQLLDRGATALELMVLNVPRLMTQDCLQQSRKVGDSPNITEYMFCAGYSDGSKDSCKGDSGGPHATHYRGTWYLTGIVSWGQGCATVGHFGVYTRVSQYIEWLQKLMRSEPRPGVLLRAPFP
# T1 sequence (P13726 33-251 partner limits assumed): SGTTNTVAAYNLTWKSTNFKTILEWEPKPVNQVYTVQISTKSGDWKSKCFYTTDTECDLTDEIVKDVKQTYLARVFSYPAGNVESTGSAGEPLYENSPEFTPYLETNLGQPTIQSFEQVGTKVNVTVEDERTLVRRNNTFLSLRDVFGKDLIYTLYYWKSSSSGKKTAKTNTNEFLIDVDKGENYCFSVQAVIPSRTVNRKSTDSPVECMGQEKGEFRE
# Description: In vitro coagulation activity was tested in a cell free two-stage coagulation assay. Negatively charged phospholipids at a final concentration of 50 μM (phosphatidylserine and phosphatidylcholine from Sigma, Taufkirchen, Germany) in calcium buffer (50 mM Tris pH=8.1, 150 mM NaCl, 2 mg/ml BSA, 5 mM Ca^++) were mixed with Factor VIIa (Sigma, Taufkirchen, Germany) at 10 nM and with samples or controls and incubated for five min at 37° C. Factor X was added to a final concentration of 30 nM and samples were incubated for 5 min at room temperature. Finally, the chromogenic substrate S2765 (Haemochrom, Essen, Germany) was added in a 100 mM EDTA solution. Factor Xa generation as a measure of Tissue Factor activity was determined by the increase in the absorption at 405 nm.
# Negatively charged phospholipids at a final concentration of 50 μM (phosphatidylserine and phosphatidylcholine from Sigma, St. Louis, Mo.) in calcium buffer (50 mM Tris pH=8.1, 150 mM NaCl, 2 mg/ml BSA, 5 mM Ca^++) were mixed with Factor VIIa (Sigma, St. Louis, Mo.) at 10 nM and with samples or controls and incubated for five minutes at 37° C. Factor X (Sigma, St. Louis, Mo.) was added to a final concentration of 30 nM and samples were incubated for 5 minutes at room temperature. […] Factor Xa generation as a measure of tissue factor activity was determined by the increase in the absorption at 405 nm.
# immobilized tTF = target: T2, immobilized tTF (Homo sapiens, UniProt P13726); experiment: Real time binding of tTF to immobilized tTF (surface plasmon resonance); conditions: tTF 30 μg/ml alone or preincubated with endotoxin or factor VIIa
# T2 construct: Recombinant soluble Tissue Factor protein (amino acids 1-219) was extracted from the periplasmic space of transformed E. coli; His tag (only implied by the Ni-NTA purification); made in house; host or cells: E. coli (periplasmic secretion, vector pswc7)
# T2 sequence (P13726 33-251): as the sequence (P13726 33-251 partner limits assumed) above
# F9 sarcoma tumors = experiment: F9 sarcoma mouse model, tumor tissue necrosis; type: in vivo, balb/c nude mice; conditions: endotoxin-free tTF 4 μg; three days after treatment
# Description: 1×10^7 F9 sarcoma cells were injected subcutaneously into the right flank of balb/c nude mice. Subcutanous tumors were measured with a caliper in three perpendicular directions a, b, and c, and volumes calculated according to the formula V=π/6×a×b×c. Treatment was initiated when subcutaneous tumors reached a size of 150 to 300 μl.
# Reagents were administered into the lateral tail vein.
# Mice were closely observed after treatment for clinical signs of toxicity and clinical status was documented at defined time points. Three days after treatment, mice were sacrificed and tumors were harvested. Paraffin embedded tissues were stained with hematoxilin and eosin (H&E). Tissue sections were analyzed on a light microscope by two independent investigators and histological findings were documented. Tumor sections with necrotic areas were scanned with a GS-700 imaging densitometer (Biorad. Hercules, Calif.) and areas of necrosis were calculated as % of total section area.
# A20 lymphoma cells = experiment: In vitro coagulation assay on A20 cells with B21-2/10H10 capture antibody; type: cell-based, mouse; conditions: for coagulation time: cells alone 190 seconds
substance,measurement,setting,value
"tTF: truncated (soluble) human Tissue Factor, extracellular domain, amino acid 1-219 of the mature protein",% tumor necrosis,"[1]; Table 2, tTF alone, no endotoxin, three days after i.v. treatment",4%
same,Percentage of tumor tissue necrosis,"[1]; tTF alone (4 μg or 16 μg endotoxin-free tTF), no endotoxin",0%
same,anti-tumor effect,[1]; tTF alone at 100 μg,anti-tumor effects begin to appear
same,anti-tumor effect,[1]; tTF alone at doses of from 4 μg to 16 μg,no anti-tumor effect
same,histology of normal organs,"[2]; light microscopy, three days after treatment",No histological abnormalities
same,Symptoms,[2]; listed as TTF,None
same,Symptoms,[2]; listed as endotoxin-free tTF,no clinical signs of toxicity
same,TAT,[3],25.4 ng/mL
same,Factor Xa generation due to Factor VIIa production,"bEnd 3 cells; stimulation with 0.5 μg/ml LPS (label LPS = medium only), 2 μg/ml factor VII and 0.01 μg/ml factor VIIa",3.00 nkatS2222
same,Factor Xa generation,"bEnd 3 cells; stimulation with 0.5 μg/ml LPS, then incubation with labelled agent (label LPS = medium only), 0.5 μg/ml factor VIIa",2.00 nkatS2222
same,Factor Xa generation,"bEnd 3 cells; stimulation with 10 μg/ml LPS, then incubation with labelled agent (label LPS = medium only), 0.5 μg/ml factor VIIa",2.91 nkatS2222
same,Factor Xa generation due to Factor VIIa production,"bEnd 3 cells; stimulation with Medium, mix with 2 μg/ml factor VII and 0.01 μg/ml factor VIIa",0.70 nkatS2222
same,Factor Xa generation,"bEnd 3 cells; stimulation with Medium, then incubation with the labelled agent (100 nM), mix with 0.5 μg/ml factor VIIa (VIIa not limiting)",0.40 nkatS2222
same,Factor Xa generation,"bEnd 3 cells; stimulation with TNFα (500 U/ml), then incubation with labelled agent (label TNFα = medium only), 0.5 μg/ml factor VIIa",0.67 nkatS2222
same,Factor Xa generation due to Factor VIIa production,"bEnd 3 cells; stimulation with TNFα (label TNFα = medium only), 2 μg/ml factor VII and 0.01 μg/ml factor VIIa",1.91 nkatS2222
same,coagulation activities before and after endotoxin removal (depyrogenation),[4],the same
same,binding to immobilized tTF,immobilized tTF,did not bind
same,average tumor tissue necrosis,F9 sarcoma tumors,45%
same,coagulation time,"A20 lymphoma cells; 20,000 molecules per cell",140 s
same,coagulation time,"A20 lymphoma cells; 300,000 molecules of tTF per cell",40 s
same,concentration at which plasma coagulated in 50 seconds,A20 lymphoma cells; bound via B21-2/10H10 to A20 cells,3 nM
same,time until fibrin strands were visible,"A20 lymphoma cells; mouse plasma, tTF bound by B21-2/10H10, untreated cells 164 seconds",36 s
same,increase in coagulation-inducing potency,A20 lymphoma cells; presence of 0.1 nM Factor VIIa,2-5 fold
